The conditions of data set [1]: in the brain following ICH, increased BBB permeability.
Data set [2] has as its system microglia. The data set is described as follows: CCK-8 microglial viability. Format: cell-based, mouse. The source says:
(§1) Primary cortical neurons were isolated from embryonic day 16–18 (E16–E18) C57BL/6 mouse embryos as previously described, and cultured in Neurobasal medium supplemented with B27 and GlutaMAX (Gibco).Primary microglial cells were isolated from the cortices of neonatal (day 1) C57BL/6J mice. After disinfection with 75 % ethanol, the skin and skull were removed, and the brains were placed in ice-cold HBSS. The meninges were peeled off, the cortex was collected, and the hippocampus was discarded. Tissues were digested with 0.25 % trypsin at 37 °C for 12 min, centrifuged at 1200 rpm for 5 min, and resuspended in complete medium. The suspension was transferred to a T75 flask with 15 mL of complete medium. After 14 days, microglial cells were harvested by shaking the flask at 270–280 rpm for 30 min, and the supernatant was collected. To induce phenotyping, microglial cells were treated with LPS (100 ng/mL) and IFN-γ (20 ng/mL) for 48 h to induce the M1 phenotype, or IL-4 (20 ng/mL) for 48 h to induce the M2 phenotype. […]
Microglia were exposed to 1, 10 100 μM concentrations of TCC or TC and PBS respectively for 24 h, and cell viability was measured. […] Cell viability was assessed using the Cell Counting Kit-8 (C0038, Beyotime) according to the manufacturer’s protocol. Absorbance at 450 nm was measured to determine cell viability.

Data set [3] has as its system microglia. Kind of data set: IL-6 release from CIRP-stimulated microglia, ELISA (TCC vs TC). Format: cell-based, mouse. The note with it: peptides 10 μM pre-treated 0.5 h, then rmCIRP 1 μg/mL 24 h, n = 3.
Protocol: To validate the effects of TCC and TC in vitro, microglial cells were pre-treated with the peptides (10 μM) for 0.5 h, followed by stimulation with recombinant mouse CIRP (rmCIRP, 1 μg/mL) for 24 h to establish an inflammation model.
ELISA was used to quantify CIRP, MD2, IL-6, and TNF-α concentrations in blood and cerebrospinal fluid samples. Samples were processed and stored under standardized conditions to preserve protein integrity. Each target protein was measured using commercial ELISA kits, following the manufacturer’s instructions: Mouse CIRBP ELISA Kit (CSB-EL005440MO, CUSABIO), Mouse TNF-α ELISA Kit (EK282, Lianke Bio), Mouse IL-6 ELISA Kit (CSB-E04639m, CUSABIO), and Rat TNF-α ELISA Kit (EK382, Lianke Bio).
After disinfection with 75 % ethanol, the skin and skull were removed, and the brains were placed in ice-cold HBSS. The meninges were peeled off, the cortex was collected, and the hippocampus was discarded. Tissues were digested with 0.25 % trypsin at 37 °C for 12 min, centrifuged at 1200 rpm for 5 min, and resuspended in complete medium. The suspension was transferred to a T75 flask with 15 mL of complete medium. After 14 days, microglial cells were harvested by shaking the flask at 270–280 rpm for 30 min, and the supernatant was collected. […] CIRP (1 μg/mL for 24 h) was added to the microglia, which were divided into PBS, CIRP, and CIRP + TCC groups. […]
The subject of data set [4] is microglia. Kind of data set: Microglial phagocytosis of CFSE-labeled RBCs. The data set is classed as cell-based, mouse. The note with it: rmCIRP 24 h, then CFSE-labeled erythrocytes.
From the text: as §1, with “collected.” for “collected. To induce phenotyping, microglial cells were treated with LPS (100 ng/mL) and IFN-γ (20 ng/mL) for 48 h to induce the M1 phenotype, or IL-4 (20 ng/mL) for 48 h to induce the M2 phenotype.”
The functional characteristics of microglial cells encompass not only the release of inflammatory cytokines but also their phagocytic activity. […] RBCs were labeled with either 0.5 μM or 5 μM CFSE, and immunofluorescence analysis determined that 5 μM CFSE was the optimal concentration for labeling (Fig. 7G). […]
RBCs were isolated via density gradient centrifugation and labeled with CFSE before being stereotactically injected into the right striatum. […] Cell viability was assessed using a Fixable Viability Dye, and flow cytometric analysis was subsequently performed. […]

For data set [5], the target named is T1, recombinant human IL-6 receptor alpha (IL-6Rα) (human, UniProt P08887 20-365).
T1 construct: Interleukin-6 receptor subunit alpha, human; UniProtKB P08887 is printed for the docking; also called rhIL-6Rα; rhIL-6R; source: recombinant
T1 sequence (looked up): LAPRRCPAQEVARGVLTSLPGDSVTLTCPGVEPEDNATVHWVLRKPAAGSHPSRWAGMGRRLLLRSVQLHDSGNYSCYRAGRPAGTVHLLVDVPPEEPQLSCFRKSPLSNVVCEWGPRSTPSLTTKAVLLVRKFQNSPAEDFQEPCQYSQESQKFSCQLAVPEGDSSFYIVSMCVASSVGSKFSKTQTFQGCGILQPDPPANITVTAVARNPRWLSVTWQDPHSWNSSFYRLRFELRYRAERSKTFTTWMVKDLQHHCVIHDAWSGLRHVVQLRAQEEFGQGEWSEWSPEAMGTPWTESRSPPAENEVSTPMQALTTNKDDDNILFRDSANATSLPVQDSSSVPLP
Kind of data set: SPR; human IL-6Rα immobilised on a CM5 chip; human CIRBP or TCC as analyte. The note with it: both partners purified. Background: In SPR one partner is held on a chip, and binding of the other changes the refractive index at the surface.

Like-named read-outs stand apart in the source and are kept apart here. No end group written: not given here.

For the molecule “YGRKKRRQRRRGRGFSRGGGDRGYGGKFERQKILDQRFFE [TCC]”, in data set [1], the “ability to cross the BBB” value is listed as “effectively traverse the BBB”. In the data set on microglia [2] (10 μM, 24 h, CCK-8, n = 3), the microglial viability result was “did not affect microglial viability”.
With YGRKKRRQRRRRFESRSGGYGGSRD [TC], the “IL-6 release in culture supernatants” value in the data set on microglia [3] was “reduced IL-6 release”. Also, the microglial viability result in the data set on microglia [2] is recorded as “did not affect microglial viability”.

B1: rmCIRP: recombinant mouse CIRP (rmCIRP, 1 μg/mL) (protein, UniProt P60824 1-172, looked up)
Cold-inducible RNA-binding …: MASDEGKLFVGGLSFDTNEQALEQVFSKYGQISEVVVVKDRETQRSRGFGFVTFENIDDAKDAMMAMNGKSVDGRQIRVDQAGKSSDNRSRGYRGGSAGGRGFFRGGRSRGRGFSRGGGDRGYGGGRFESRSGGYGGSRDYYASRSQGGSYGYRSSGGSYRDSYDSYATHNE
As to B1, in the data set on microglia [4], the “phagocytosis of RBCs, Cirbp^−/− vs WT microglia” value was “greater capacity to phagocytize CFSE-labeled erythrocytes compared to WT microglia”.

B2: Tat-CIRP-CMA peptide (peptide)
peptide: YGRKKRRQRRRGRGFSRGGGDRGYGGKFERQKILDQRFFE
notes: also called TCC; source: synthetic peptide (Heifei KS-V Peptide Biotechnology, China)
For the molecule B2, in data set [5], the Kd amounted to 4.12 nM.

In general, Kd refers to the concentration at which binding is half-saturated.

The record behind these values is publication PMC13227277, “Targeting CIRP and IL-6R-mediated microglial inflammation to improve outcomes in intracerebral hemorrhage” (Journal of Advanced Research, 2025).
